Data set [1] can be described thus: Metabolic stability in human liver microsomes (HLM). The class given is in vitro ADME. Here is the method:
Metabolic stability in HLM was measured as described in J Comput Aided Mol Des 2015, 29, 795.
In general terms: Liver microsomes are vesicles of endoplasmic reticulum, rich in cytochrome P450 enzymes.

The nature of data set [2]: Caco-2 AB intrinsic permeability. The class given is in vitro ADME. The following applies: human, A to B, read-out: Caco2 AB Intrinsic Papp. The procedure:
Caco-2 cell permeability was measured as described in Mol/Pharm 2017, 14, 1601.
On the technique in general: Caco-2 monolayers are a common model of the intestinal barrier.

In data set [3] the target is hFAP (Homo sapiens (Human), UniProt Q12884).
hFAP, sequence (Q12884 38-760): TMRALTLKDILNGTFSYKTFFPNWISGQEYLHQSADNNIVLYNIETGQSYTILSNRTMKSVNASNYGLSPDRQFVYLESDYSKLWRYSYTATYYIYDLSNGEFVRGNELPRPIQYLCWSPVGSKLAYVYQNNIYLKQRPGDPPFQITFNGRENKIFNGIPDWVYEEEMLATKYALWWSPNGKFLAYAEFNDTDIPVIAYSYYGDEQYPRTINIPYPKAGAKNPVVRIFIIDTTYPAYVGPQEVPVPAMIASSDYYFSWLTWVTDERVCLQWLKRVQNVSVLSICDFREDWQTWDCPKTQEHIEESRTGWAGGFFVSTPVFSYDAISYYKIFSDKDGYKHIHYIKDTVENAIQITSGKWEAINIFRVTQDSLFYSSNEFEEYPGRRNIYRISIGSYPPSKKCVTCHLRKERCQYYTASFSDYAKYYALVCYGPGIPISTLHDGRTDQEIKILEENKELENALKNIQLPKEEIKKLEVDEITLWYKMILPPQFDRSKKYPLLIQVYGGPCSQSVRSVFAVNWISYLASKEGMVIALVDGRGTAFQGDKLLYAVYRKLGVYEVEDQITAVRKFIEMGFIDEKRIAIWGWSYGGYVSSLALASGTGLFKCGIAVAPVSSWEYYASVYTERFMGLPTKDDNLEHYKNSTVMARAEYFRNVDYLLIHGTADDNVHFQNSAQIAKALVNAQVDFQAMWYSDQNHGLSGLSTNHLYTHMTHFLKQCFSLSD
Data set [4] concerns the target human Fibroblast activation protein alpha (hFAP) (Homo sapiens (Human), UniProt Q12884). Kind of data set: hFAP inhibition assay (tight binders). In kind it is biochemical. The following applies: tight-binder format, Ala-Pro-AMC 20 μM, 2.5 h incubation; n = 1 or geometric mean (n = 5-10). The procedure: Data were analyzed in Genedata Screener®.
The subject of data set [5] is Human Hepatocytes (hHep). The data set can be described thus: Metabolic stability in human hepatocytes (hHep). In kind it is in vitro ADME. The procedure: Metabolic stability in human hepatocytes was measured as described in Xenobiotica 2010, 40, 637.
Data set [6] deals with FAP Human Plasma (Homo sapiens (Human), UniProt Q12884). Kind of data set: FAP plasma inhibition assay, human plasma. In kind it is biochemical. The settings on record: human plasma dilution 1:40, Ala-Pro-AMC 75 μM; n = 1. Here is the method:
(§1) This assay was adapted from the method described in Example 53 for detection of FAP target engagement enzyme activity in plasma. Plasma (anticoagulant K2EDTA) was used as the enzyme source: Human plasma (Pooled from AZ Biobank) and Mouse plasma (AZ AST Biobank). 384-Well black fluotrack PS plates (Greiner 781076) were used. 20 μL diluted plasma (Human plasma dilution 1:40, Mouse plasma dilution 1:67) in buffer (PBS, 0.1% BSA) was added to 0.6 μL compounds (in DMSO). Compounds were tested using 10 CR, 3-fold dilution series from 500 nM FAC. Two replicates for each assay point were run on the same plate. A fluorescence blank read was taken before substrate addition. Substrate, Ala-Pro-AMC (ARI-3144) stock solution (20 mM in DMSO) was diluted in buffer (PBS, 0.1% BSA) to 150 μM concentration and 20 μL added giving 75 μM FAC. Plates were incubated for 40 min at rt in the dark. The plates were read on a Beckman Paradigm® reader with excitation 360 nm and emission 465 nm. Data were analyzed in Excel (IDBS XLfit Add-In) using a one site dose response model (4-parameter logistic fit). […] Raw data signals were normalized using 1.5% DMSO in diluted plasma as 0% control and 1.5% DMSO in buffer (no plasma) as 100% inhibitor control.

Data set [7] is described as follows: Kinetic solubility. In kind it is physicochemical. The settings on record: kinetic from dmso stock. Here is the method: Kinetic solubility was measured as described in Comput Aided Mol Des 2015, 29, 795.
The subject of data set [8] is Rat Hepatocytes (rHep). Kind of data set: Metabolic stability in rat hepatocytes (rHep). In kind it is in vitro ADME. The procedure:
Metabolic stability in rat hepatocytes was measured as described in J Comput Aided Mol Des 2015, 29, 795.

For data set [9], the target named is Prolyl Oligopeptidase (hPREP) (Homo sapiens (Human), UniProt P48147). Kind of data set: hPREP inhibition assay. In kind it is biochemical. The following applies: hPREP 0.6 nM, Z-Gly-Pro-amino-methylcoumarin 50 μM; read-out: PREP IC50. Here is the method: Compounds were tested in a biochemical inhibition assay using Prolyl endopeptidase, Prolyl Oligopeptidase (hPREP) enzyme at 0.6 nM FAC (R&D Systems, 4308-SE) and the substrate Z-Gly-Pro-amino-methylcoumarin (Bachem, I-1145) at 50 μM FAC. 384 Low volume black plates (Greiner #784076) were used. […] 4 μL, 100 μM substrate solution (25 mM Tris HCl, 250 mM NaCl, 0.01% Triton X-100, 5 mM Glutathione, pH 7.5) was added to each well. Plates were centrifuged at 1000 rpm and incubated for 20 min at rt in dark. […] Data were analyzed in Genedata Screener®.
Prolyl Oligopeptidase (hPREP), sequence (P48147 whole entry): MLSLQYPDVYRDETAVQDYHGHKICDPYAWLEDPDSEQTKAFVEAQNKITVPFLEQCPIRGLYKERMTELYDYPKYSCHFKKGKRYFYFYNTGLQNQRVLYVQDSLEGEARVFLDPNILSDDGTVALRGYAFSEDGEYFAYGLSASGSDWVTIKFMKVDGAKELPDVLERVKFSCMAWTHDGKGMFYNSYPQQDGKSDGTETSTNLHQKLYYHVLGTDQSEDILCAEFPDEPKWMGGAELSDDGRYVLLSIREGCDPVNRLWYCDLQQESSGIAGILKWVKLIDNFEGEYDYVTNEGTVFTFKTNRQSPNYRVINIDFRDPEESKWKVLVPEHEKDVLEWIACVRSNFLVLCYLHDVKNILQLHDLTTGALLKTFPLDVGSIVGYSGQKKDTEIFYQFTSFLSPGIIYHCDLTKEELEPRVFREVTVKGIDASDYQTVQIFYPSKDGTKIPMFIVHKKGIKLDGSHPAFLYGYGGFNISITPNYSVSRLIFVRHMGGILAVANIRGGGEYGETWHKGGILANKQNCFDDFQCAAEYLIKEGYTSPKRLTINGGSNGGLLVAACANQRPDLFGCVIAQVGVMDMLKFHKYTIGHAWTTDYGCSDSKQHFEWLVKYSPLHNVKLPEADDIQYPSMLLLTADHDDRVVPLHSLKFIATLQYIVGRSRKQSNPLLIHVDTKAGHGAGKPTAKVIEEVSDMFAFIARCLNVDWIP

Data set [10] deals with FAP Mouse Plasma (Mus musculus (Mouse), UniProt P97321). The data set can be described thus: FAP plasma inhibition assay, mouse plasma. The following applies: mouse plasma dilution 1:67, Ala-Pro-AMC 75 μM; n = 1. In kind it is biochemical. The procedure:
as §1

The target of data set [11] is hFAP (M39-A757) (Homo sapiens (Human), UniProt Q12884).
hFAP (M39-A757), sequence (Q12884 39-757): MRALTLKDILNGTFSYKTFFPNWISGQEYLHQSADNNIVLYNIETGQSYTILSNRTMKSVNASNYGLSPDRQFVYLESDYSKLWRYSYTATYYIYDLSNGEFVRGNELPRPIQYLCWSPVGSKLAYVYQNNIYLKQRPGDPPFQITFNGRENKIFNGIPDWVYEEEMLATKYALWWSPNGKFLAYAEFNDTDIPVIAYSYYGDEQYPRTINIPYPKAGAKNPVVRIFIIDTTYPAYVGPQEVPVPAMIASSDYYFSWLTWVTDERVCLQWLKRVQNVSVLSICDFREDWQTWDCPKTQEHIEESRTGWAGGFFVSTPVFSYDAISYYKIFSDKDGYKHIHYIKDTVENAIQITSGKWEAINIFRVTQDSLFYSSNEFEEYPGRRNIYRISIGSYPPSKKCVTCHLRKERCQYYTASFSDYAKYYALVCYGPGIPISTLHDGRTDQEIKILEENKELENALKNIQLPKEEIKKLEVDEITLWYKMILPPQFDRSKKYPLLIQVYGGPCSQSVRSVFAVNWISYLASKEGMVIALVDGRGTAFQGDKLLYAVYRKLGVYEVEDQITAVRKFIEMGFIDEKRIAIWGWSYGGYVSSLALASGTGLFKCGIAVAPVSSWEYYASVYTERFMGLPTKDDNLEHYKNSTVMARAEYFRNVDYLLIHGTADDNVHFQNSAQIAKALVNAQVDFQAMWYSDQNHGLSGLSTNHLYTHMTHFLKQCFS
Protocol: Compounds were tested in a direct binding assay using 8K surface plasmon resonance biosensor (GE Healthcare) at 20° C. Immobilization of hFAP (M39-A757) on a CMD200M sensor chip (Xantec) was performed using standard amine coupling procedure in immobilization buffer (10 mM HEPES, 150 mM NaCl, 0.05% Tween20, pH 7.4). The surface was washed with 10 mM NaOH, 1M NaCl before being activated with EDC/NHS (GE Healthcare), followed by immobilization of hFAP (in 10 mM Acetate pH 5.0). Finally, the surface was deactivated by ethanolamine. Immobilization levels of hFAP were around 4000-6000 RU. The reference spot was treated as described, omitting the injection of hFAP. Compound concentration series were injected over the immobilized protein in increasing concentrations (2-500 nM) using single cycle kinetics in running buffer (20 mM TRIS, 150 mM NaCl, 0.05% Tween20, 1% DMSO, pH 7.4). Interaction models were fitted globally to the experimental traces, enabling determination of kon, koff and Kd.

Structures are written as SMILES. In brackets after ≈: the same amount, converted by molar mass. A value given as a limit tells only on which side of the number the result lay.

FAP Mouse Plasma, sequence (P97321 24-761 limits assumed): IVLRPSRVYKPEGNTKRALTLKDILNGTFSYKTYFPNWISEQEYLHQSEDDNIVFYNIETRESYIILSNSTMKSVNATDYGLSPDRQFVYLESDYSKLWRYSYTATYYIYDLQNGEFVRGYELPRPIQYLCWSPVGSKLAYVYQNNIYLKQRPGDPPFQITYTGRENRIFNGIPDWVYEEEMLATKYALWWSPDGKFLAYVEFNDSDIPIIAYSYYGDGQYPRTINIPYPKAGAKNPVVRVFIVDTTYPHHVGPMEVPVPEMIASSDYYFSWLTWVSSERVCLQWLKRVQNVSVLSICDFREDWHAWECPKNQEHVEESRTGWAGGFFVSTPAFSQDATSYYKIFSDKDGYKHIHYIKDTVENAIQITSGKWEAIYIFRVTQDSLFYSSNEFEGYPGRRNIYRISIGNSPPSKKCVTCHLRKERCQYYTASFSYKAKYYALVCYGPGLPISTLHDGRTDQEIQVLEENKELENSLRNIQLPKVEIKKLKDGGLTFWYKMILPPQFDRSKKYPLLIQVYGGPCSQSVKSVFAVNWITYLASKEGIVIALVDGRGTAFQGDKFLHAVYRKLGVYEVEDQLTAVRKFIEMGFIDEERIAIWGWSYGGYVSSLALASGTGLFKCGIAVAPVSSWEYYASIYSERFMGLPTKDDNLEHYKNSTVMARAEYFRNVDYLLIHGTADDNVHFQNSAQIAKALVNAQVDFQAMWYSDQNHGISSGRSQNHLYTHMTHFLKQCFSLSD
FAP Human Plasma, sequence (Q12884 24-760 limits assumed): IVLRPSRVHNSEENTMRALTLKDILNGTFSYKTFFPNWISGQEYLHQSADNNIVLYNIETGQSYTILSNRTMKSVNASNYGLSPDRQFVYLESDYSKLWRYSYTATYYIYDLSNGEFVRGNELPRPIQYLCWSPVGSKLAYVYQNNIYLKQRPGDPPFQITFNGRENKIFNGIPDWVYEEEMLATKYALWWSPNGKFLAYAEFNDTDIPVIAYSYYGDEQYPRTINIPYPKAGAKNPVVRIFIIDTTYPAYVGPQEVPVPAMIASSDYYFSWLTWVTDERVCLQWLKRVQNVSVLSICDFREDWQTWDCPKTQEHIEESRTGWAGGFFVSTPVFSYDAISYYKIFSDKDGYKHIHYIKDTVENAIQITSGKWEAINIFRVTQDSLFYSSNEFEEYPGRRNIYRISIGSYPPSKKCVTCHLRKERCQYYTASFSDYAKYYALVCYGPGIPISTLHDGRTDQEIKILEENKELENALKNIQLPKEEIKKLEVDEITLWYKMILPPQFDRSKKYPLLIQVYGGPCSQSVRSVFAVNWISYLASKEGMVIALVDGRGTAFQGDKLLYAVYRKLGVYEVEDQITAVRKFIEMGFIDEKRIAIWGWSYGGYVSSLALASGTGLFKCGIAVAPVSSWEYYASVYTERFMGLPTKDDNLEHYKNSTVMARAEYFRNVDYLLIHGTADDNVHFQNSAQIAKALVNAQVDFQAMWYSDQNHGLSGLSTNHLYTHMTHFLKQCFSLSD
human Fibroblast activation protein alpha (hFAP), sequence (Q12884 38-760): as the sequence (Q12884 38-760) above

For `Cc1ccc2c(C(=O)NCC(=O)N3[C@H](C#N)C[C@@H]4C[C@@H]43)cc(C)nc2c1` [Example 31, N-(2-((1S,3S,5S)-3-Cyano-2-azabicyclo[3.1.0]hexan-2-yl)-2-oxoethyl)-2,7-dimethylquinoline-4-carboxamide], the microsomal CLint – broadly, the capacity of the preparation to metabolise the compound, expressed as a volume cleared per time – in data set [1] is 6.2 µL/min/mg. For the same compound, in [2], the Papp (as a rule, a coefficient for how fast a substance crosses the barrier) was 56 ×10⁻⁶ cm/s. The IC50 – broadly, the concentration that inhibits the measured activity by half – was 31 nM in data set [3], 11 nM in data set [4], 320 nM in data set [6] and 38000 nM in [9]. In addition, the “hHep CLint” value in data set [5] was <1 μL/min/1E6. Further, the solubility (as a rule, the dissolved amount per volume that the medium holds) in [7] is > 1000 µM. The “rHeps CLint” value in [8] was 1.6 μL/min/1E6.
On to `COc1ccc2c(C(=O)NCC(=O)N3[C@H](C#N)C[C@@H]4C[C@@H]43)cc(C)nc2c1` [Example 41, N-(2-((1S,3S,5S)-3-Cyano-2-azabicyclo[3.1.0]hexan-2-yl)-2-oxoethyl)-7-methoxy-2-methylquinoline-4-carboxamide], for which the microsomal CLint in [1] is < 3 µL/min/mg. Also, the IC50 was found to be 38 nM in data set [3], 380 nM in data set [6] and 300 nM in data set [10]. Moreover, in [5], the “hHep CLint” value is reported as <1 μL/min/1E6. The compound further showed a solubility in [7] of 120 µM (≈ 43.7 µg/mL). The “rHeps CLint” value in [8] is <1 μL/min/1E6.
With `Cc1ccc2nccc(C(=O)NCC(=O)N3[C@H](C#N)C[C@@H]4C[C@@H]43)c2c1` [Example 9, N-(2-((1S,3S,5S)-3-Cyano-2-azabicyclo[3.1.0]hexan-2-yl)-2-oxoethyl)-6-methylquinoline-4-carboxamide], the half-maximal inhibitory concentration (IC50) in [3] was < 2.8 nM; in data set [4], 0.56 nM; in [6] it was 7.5 nM; in data set [9], > 50000 nM; in data set [10] it was 2.7 nM.
Regarding `N#C[C@@H]1C[C@@H]2C[C@@H]2N1C(=O)CNC(=O)c1ccnc2ccc(CF)cc12` [Example 11, N-(2-((1S,3S,5S)-3-Cyano-2-azabicyclo[3.1.0]hexan-2-yl)-2-oxoethyl)-6-(fluoromethyl)quinoline-4-carboxamide], in data set [1], the intrinsic clearance (microsomal CLint) is < 3 µL/min/mg. Besides, the affinity in data set [11], expressed as Kd, was 17 nM. Further, the values for the concentration for half-maximal inhibition (IC50) in [3], in [4] and in data set [9] were 2.2 nM, 0.4 nM and > 50000 nM, respectively. The same compound gave a solubility in data set [7] of 970 µM (≈ 342 µg/mL). Moreover, the “rHeps CLint” value in data set [8] was 5.3 μL/min/1E6.
On to `N#C[C@@H]1C[C@@H]2C[C@@H]2N1C(=O)CNC(=O)c1ccnc2ccc(Br)cc12` [Example 1, 6-Bromo-N-(2-((1S,3S,5S)-3-cyano-2-azabicyclo[3.1.0]hexan-2-yl)-2-oxoethyl)quinoline-4-carboxamide], for which the microsomal CLint in data set [1] is 9.7 µL/min/mg. Besides, the IC50 in data set [3] is 2 nM; in data set [4] it was 0.44 nM; in data set [6] it was 23 nM; in data set [9], 27000 nM; in data set [10] it was 20 nM. Moreover, in [5], the “hHep CLint” value is recorded as 2.8 μL/min/1E6. In data set [7], the solubility stood at 290 µM (≈ 116 µg/mL). For the same compound, in [8], the “rHeps CLint” value was 3.8 μL/min/1E6.
In data set [1], `N#C[C@@H]1C[C@@H]2C[C@@H]2N1C(=O)CNC(=O)c1ccnc2ccc(C3(C#N)CC3)cc12` [Example 46, N-(2-((1S,3S,5S)-3-Cyano-2-azabicyclo[3.1.0]hexan-2-yl)-2-oxoethyl)-6-(1-cyanocyclopropyl)quinoline-4-carboxamide] yielded an intrinsic metabolic clearance (microsomal CLint) of 20 µL/min/mg. In addition, binding in data set [11] was put at a Kd of 25 nM. The IC50 in data set [3] is 1.7 nM; in [4], 0.18 nM; in [9] it was > 50000 nM. The “hHep CLint” value in data set [5] is recorded as <1 μL/min/1E6. Also, the concentration in solution in [7] (solubility) was 110 µM (≈ 42.4 µg/mL). Further, in data set [8], the “rHeps CLint” value was 6.6 μL/min/1E6.
As for `N#C[C@@H]1C[C@@H]2C[C@@H]2N1C(=O)CNC(=O)c1ccnc2ccc(C3(C(F)(F)F)CC3)cc12` [Example 44, N-(2-((1S,3S,5S)-3-Cyano-2-azabicyclo[3.1.0]hexan-2-yl)-2-oxoethyl)-6-(1-(trifluoromethyl)cyclopropyl)quinoline-4-carboxamide], the microsomal CLint in data set [1] was > 300 µL/min/mg. For the same compound, binding in data set [11] was characterised by a dissociation constant (Kd) of 12 nM. Further, the IC50 is 4.6 nM in data set [3], 1.1 nM in data set [4] and > 50000 nM in data set [9]. The compound further displayed a solubility in data set [7] of 510 µM (≈ 218 µg/mL). Further, the “rHeps CLint” value in data set [8] is listed as 150 μL/min/1E6.
On to `N#C[C@@H]1C[C@@H]2C[C@@H]2N1C(=O)CNC(=O)c1ccnc2ccc(C(F)(F)F)cc12` [Example 10, N-(2-((1S,3S,5S)-3-Cyano-2-azabicyclo[3.1.0]hexan-2-yl)-2-oxoethyl)-6-(trifluoromethyl)quinoline-4-carboxamide], for which, in data set [1], the microsomal CLint was found to be 37 µL/min/mg. The IC50 in [3] was 4.8 nM; in data set [6], 34 nM; in data set [9] it was > 50000 nM; in data set [10], 15 nM. The “hHep CLint” value in data set [5] is 7 μL/min/1E6. Moreover, the concentration in solution in data set [7] (solubility) came to 140 µM (≈ 54.4 µg/mL). Also, the “rHeps CLint” value in [8] amounted to 6.7 μL/min/1E6.
Consider `N#C[C@@H]1C[C@@H]2C[C@@H]2N1C(=O)CNC(=O)c1ccnc2cc(Br)ccc12` [Example 3, 7-Bromo-N-(2-((1S,3S,5S)-3-cyano-2-azabicyclo[3.1.0]hexan-2-yl)-2-oxoethyl)quinoline-4-carboxamide], for which the intrinsic metabolic clearance (microsomal CLint) in data set [1] is < 3 µL/min/mg. In addition, the IC50 in data set [3] is 0.68 nM; in data set [4], 0.12 nM; in data set [6], 15 nM; in [9] it was > 50000 nM; in data set [10], 15 nM. Further, in data set [5], the “hHep CLint” value is <1 μL/min/1E6. This compound also came in with a solubility in data set [7] of 210 µM (≈ 83.8 µg/mL). Further, the “rHeps CLint” value in data set [8] came out at 4.5 μL/min/1E6.
On to `CCOC1(c2ccc3nccc(C(=O)NCC(=O)N4[C@H](C#N)C[C@@H]5C[C@@H]54)c3c2)CC1` [Example 45, N-(2-((1S,3S,5S)-3-Cyano-2-azabicyclo[3.1.0]hexan-2-yl)-2-oxoethyl)-6-(1-ethoxycyclopropyl)quinoline-4-carboxamide], for which the microsomal CLint in data set [1] stood at 120 µL/min/mg. Further, the Kd (in general, the equilibrium constant for the complex coming apart) in data set [11] stood at 7.3 nM. Moreover, the IC50 in [3] was 0.76 nM; in data set [4], 0.25 nM; in [9] it was > 50000 nM. In addition, in data set [7], the solubility is > 1000 µM. In addition, the “rHeps CLint” value in [8] turned out to be 40 μL/min/1E6.
Take `N#C[C@@H]1C[C@@H]2C[C@@H]2N1C(=O)CNC(=O)c1ccnc2cc(CF)ccc12` [Example 24, N-(2-((1S,3S,5S)-3-Cyano-2-azabicyclo[3.1.0]hexan-2-yl)-2-oxoethyl)-7-(fluoromethyl)quinoline-4-carboxamide]: in data set [1], the microsomal CLint is < 3 µL/min/mg. The compound further came in with a Kd in data set [11] of 8.2 nM. The IC50 is 1.2 nM in [3], 0.3 nM in [4] and > 45000 nM in [9]. Further, the solubility in data set [7] was > 1000 µM. The “rHeps CLint” value in data set [8] was 2.7 μL/min/1E6.

The values above are taken from patent publication US20230406840A1, “N-(2-(3-CYANO-2-AZABICYCLO[3.1.0]HEXAN-2-YL)-2-OXOETHYL)QUINOLINE-4-CARBOXAMIDES” (AstraZeneca AB, priority 2022, published 2023).
